Read-outs that look alike come from different tables or passages of the source.
Experiments:
[1] = tested on: RPMI-8226; test: NCI 60 five dose screen; conditions: RPMI-8226 (Leukemia), five dose
[2] = tested on: NCI-H522 (NSCLC); test: NCI 60 one dose screen; assay type: cell-based, human; conditions: Non-small Cell Lung Cancer
[3] = tested on: SF-295; test: NCI 60 one dose screen; assay type: cell-based, human; conditions: one dose; CNS Cancer; SF-295
[4] = tested on: 60 different human tumor cell lines; conditions: five dose; for CC50: read-out: LC50
[5] = tested on: gliosarcoma (SF-539); test: NCI 60 five dose screen; conditions: SF-539 (CNS Cancer), five dose
[6] = tested on: SR; test: NCI 60 five dose screen; conditions: SR (Leukemia), five dose
[7] = A549/ATCC (Non-small Cell Lung Cancer)
[8] = EKVX (Non-small Cell Lung Cancer)
[9] = HOP-62 (Non-small Cell Lung Cancer)
[10] = HOP-92 (Non-small Cell Lung Cancer)
[11] = MDA-MB-231/ATCC (Breast Cancer)
[12] = NCI-H23 (Non-small Cell Lung Cancer)
[13] = NCI-H226 (Non-small Cell Lung Cancer)
[14] = NCI-H322M (Non-small Cell Lung Cancer)
[15] = NCI-H460 (Non-small Cell Lung Cancer)
[16] = NCI-H522 (Non-small Cell Lung Cancer)

**Q.** What does the source list for `C[C@]12CCc3nc(N)sc3C1=CC[C@@H]1[C@@H]2CC[C@]2(C)C(=NNC(N)=O)CC[C@@H]12` [IVb.1]?
**A.** GI50 [1]: 300 nM; TGI [1]: 1.37E−6; CC50 ([1]; read-out: LC50): > 100 µM; Growth Percent [2]: −18.57%; Growth Percent [3]: 45.72%; GI50 ([4]; 786-0 (Renal Cancer)): 1390 nM; TGI ([4]; 786-0 (Renal Cancer)): 2.82E−6; GI50 ([4]; A498 (Renal Cancer)): 2100 nM; TGI ([4]; A498 (Renal Cancer)): 6.83E−6; GI50 [4, 7]: 2020 nM; TGI [4, 7]: 3.89E−6; GI50 ([4]; ACHN (Renal Cancer)): 1800 nM; TGI ([4]; ACHN (Renal Cancer)): 3.19E−6; GI50 ([4]; BT-549 (Breast Cancer)): 2840 nM; TGI ([4]; BT-549 (Breast Cancer)): 8.91E−6; GI50 ([4]; CAKI-1 (Renal Cancer)): 1770 nM; TGI ([4]; CAKI-1 (Renal Cancer)): 3.64E−6; GI50 ([4]; CCRF-CEM (Leukemia)): 280 nM; TGI ([4]; CCRF-CEM (Leukemia)): 1.62E−6; GI50 ([4]; COLO 205 (Colon Cancer)): 2060 nM; TGI ([4]; COLO 205 (Colon Cancer)): 4.37E−6; GI50 ([4]; DU-145 (Prostate Cancer)): 1750 nM; TGI ([4]; DU-145 (Prostate Cancer)): 3.41E−6; GI50 [4, 8]: 1800 nM; TGI [4, 8]: 3.63E−6; GI50 ([4]; HCC-2998 (Colon Cancer)): 1740 nM; TGI ([4]; HCC-2998 (Colon Cancer)): 3.28E−6; GI50 ([4]; HCT-15 (Colon Cancer)): 1460 nM; TGI ([4]; HCT-15 (Colon Cancer)): 2.86E−6; GI50 ([4]; HCT-116 (Colon Cancer)): 2090 nM; TGI ([4]; HCT-116 (Colon Cancer)): 4.35E−6; GI50 ([4]; HL-60(TB) (Leukemia)): 2730 nM; TGI ([4]; HL-60(TB) (Leukemia)): 7.95E−6; GI50 [4, 9]: 1840 nM; TGI [4, 9]: 3.47E−6; GI50 [4, 10]: 1510 nM; TGI [4, 10]: 3.16E−6; GI50 ([4]; HS 578T (Breast Cancer)): 2080 nM; TGI ([4]; HS 578T (Breast Cancer)): 5.15E−6; GI50 ([4]; HT29 (Colon Cancer)): 1880 nM; TGI ([4]; HT29 (Colon Cancer)): 3.73E−6; GI50 ([4]; IGROV1 (Ovarian Cancer)): 1780 nM; TGI ([4]; IGROV1 (Ovarian Cancer)): 3.43E−6; GI50 ([4]; K-562 (Leukemia)): 1810 nM; TGI ([4]; K-562 (Leukemia)): 5.08E−6; GI50 ([4]; KM12 (Colon Cancer)): 2010 nM; TGI ([4]; KM12 (Colon Cancer)): 4.01E−6; GI50 ([4]; LOX IMVI (Melanoma)): 1710 nM; TGI ([4]; LOX IMVI (Melanoma)): 3.12E−6; GI50 ([4]; M14 (Melanoma)): 1940 nM; TGI ([4]; M14 (Melanoma)): 3.77E−6; GI50 ([4]; MALME-3M (Melanoma)): 1760 nM; TGI ([4]; MALME-3M (Melanoma)): 3.49E−6; GI50 ([4]; MCF7 (Breast Cancer)): 1520 nM; TGI ([4]; MCF7 (Breast Cancer)): 3.14E−6; GI50 [4, 11]: 1700 nM; TGI [4, 11]: 3.43E−6; GI50 ([4]; MDA-MB-435 (Melanoma)): 1330 nM; TGI ([4]; MDA-MB-435 (Melanoma)): 2.70E−6; GI50 ([4]; MDA-MB-468 (Breast Cancer)): 1600 nM; TGI ([4]; MDA-MB-468 (Breast Cancer)): 3.17E−6; GI50 ([4]; MOLT-4 (Leukemia)): 2640 nM; TGI ([4]; MOLT-4 (Leukemia)): 7.02E−6; GI50 [4, 12]: 1780 nM; TGI [4, 12]: 3.32E−6; GI50 [4, 13]: 2090 nM; TGI [4, 13]: 4.91E6; GI50 [4, 14]: 1770 nM; TGI [4, 14]: 3.55E−6; GI50 [4, 15]: 1920 nM; TGI [4, 15]: 3.61E−6; GI50 [4, 16]: 1930 nM; TGI [4, 16]: 4.06E−6; GI50 ([4]; NCI/ADR-RES (Ovarian Cancer)): 1940 nM; TGI ([4]; NCI/ADR-RES (Ovarian Cancer)): 3.87E−6; GI50 ([4]; OVCAR-3 (Ovarian Cancer)): 1870 nM; TGI ([4]; OVCAR-3 (Ovarian Cancer)): 3.44E−6; GI50 ([4]; OVCAR-4 (Ovarian Cancer)): 1740 nM; TGI ([4]; OVCAR-4 (Ovarian Cancer)): 3.17E−6; GI50 ([4]; OVCAR-5 (Ovarian Cancer)): 1710 nM; GI50 ([4]; OVCAR-8 (Ovarian Cancer)): 1850 nM; TGI ([4]; OVCAR-8 (Ovarian Cancer)): 3.63E−6; GI50 ([4]; PC-3 (Prostate Cancer)): 1250 nM; TGI ([4]; PC-3 (Prostate Cancer)): 2.75E−6; GI50 ([4]; RXF 393 (Renal Cancer)): 1610 nM; TGI ([4]; RXF 393 (Renal Cancer)): 3.23E−6; GI50 ([4]; SF-268 (CNS Cancer)): 1780 nM; TGI ([4]; SF-268 (CNS Cancer)): 4.11E−6; GI50 ([4]; SK-MEL-2 (Melanoma)): 1980 nM; TGI ([4]; SK-MEL-2 (Melanoma)): 4.58E−6; GI50 ([4]; SK-MEL-5 (Melanoma)): 1570 nM; TGI ([4]; SK-MEL-5 (Melanoma)): 2.97E−6; GI50 ([4]; SK-MEL-28 (Melanoma)): 1630 nM; TGI ([4]; SK-MEL-28 (Melanoma)): 3.10E−6; GI50 ([4]; SK-OV-3 (Ovarian Cancer)): 6210 nM; TGI ([4]; SK-OV-3 (Ovarian Cancer)): 2.23E−6; GI50 ([4]; SN12C (Renal Cancer)): 1890 nM; TGI ([4]; SN12C (Renal Cancer)): 3.45E−6; GI50 ([4]; SNB-19 (CNS Cancer)): 1870 nM; TGI ([4]; SNB-19 (CNS Cancer)): 3.62E−6; GI50 ([4]; SNB-75 (CNS Cancer)): 1580 nM; TGI ([4]; SNB-75 (CNS Cancer)): 3.50E−6; GI50 ([4]; SW-620 (Colon Cancer)): 1690 nM; TGI ([4]; SW-620 (Colon Cancer)): 3.39E−6; GI50 ([4]; T-47D (Breast Cancer)): 1860 nM; TGI ([4]; T-47D (Breast Cancer)): 3.80E−6; GI50 ([4]; TK-10 (Renal Cancer)): 2290 nM; TGI ([4]; TK-10 (Renal Cancer)): 5.45E−6; GI50 ([4]; U251 (CNS Cancer)): 1770 nM; TGI ([4]; U251 (CNS Cancer)): 3.22E−6; GI50 ([4]; UACC-62 (Melanoma)): 1630 nM; TGI ([4]; UACC-62 (Melanoma)): 3.13E−6; GI50 ([4]; UACC-257 (Melanoma)): 2400 nM; TGI ([4]; UACC-257 (Melanoma)): 5.83E−6; GI50 ([4]; UO-31 (Renal Cancer)): 1520 nM; TGI ([4]; UO-31 (Renal Cancer)): 2.88E−6; CC50 ([4]; 786-0 (Renal Cancer)): 5.96 µM; CC50 ([4]; A498 (Renal Cancer)): 27.8 µM; CC50 [4, 7]: 7.51 µM; CC50 ([4]; ACHN (Renal Cancer)): 5.68 µM; CC50 ([4]; BT-549 (Breast Cancer)): 88.5 µM; CC50 ([4]; CAKI-1 (Renal Cancer)): 7.49 µM; CC50 ([4]; CCRF-CEM (Leukemia)): > 100 µM; CC50 ([4]; COLO 205 (Colon Cancer)): 9.25 µM; CC50 ([4]; DU-145 (Prostate Cancer)): 6.66 µM; CC50 [4, 8]: 7.32 µM; CC50 ([4]; HCC-2998 (Colon Cancer)): 6.15 µM; CC50 ([4]; HCT-15 (Colon Cancer)): 5.6 µM; CC50 ([4]; HCT-116 (Colon Cancer)): 9.07 µM; CC50 ([4]; HL-60(TB) (Leukemia)): > 100 µM; CC50 [4, 9]: 6.54 µM; CC50 [4, 10]: 6.6 µM; CC50 ([4]; HT29 (Colon Cancer)): 7.41 µM; CC50 ([4]; IGROV1 (Ovarian Cancer)): 6.63 µM; CC50 ([4]; K-562 (Leukemia)): 40.4 µM; CC50 ([4]; KM12 (Colon Cancer)): 6.79 µM; CC50 ([4]; LOX IMVI (Melanoma)): 5.72 µM; CC50 ([4]; M14 (Melanoma)): 7.31 µM; CC50 ([4]; MALME-3M (Melanoma)): 6.9 µM; CC50 ([4]; MCF7 (Breast Cancer)): 6.5 µM; CC50 [4, 11]: 6.9 µM; CC50 ([4]; MDA-MB-435 (Melanoma)): 5.49 µM; CC50 ([4]; MDA-MB-468 (Breast Cancer)): 6.3 µM; CC50 ([4]; MOLT-4 (Leukemia)): 93.3 µM; CC50 [4, 12]: 6.21 µM; CC50 [4, 13]: 17.4 µM; CC50 [4, 15]: 6.79 µM; CC50 [4, 16]: 8.55 µM; CC50 ([4]; NCI/ADR-RES (Ovarian Cancer)): 7.71 µM; CC50 ([4]; OVCAR-3 (Ovarian Cancer)): 6.34 µM; CC50 ([4]; OVCAR-4 (Ovarian Cancer)): 5.78 µM; CC50 ([4]; OVCAR-5 (Ovarian Cancer)): 5.96 µM; CC50 ([4]; OVCAR-8 (Ovarian Cancer)): 7.11 µM; CC50 ([4]; PC-3 (Prostate Cancer)): 6.01 µM; CC50 ([4]; RXF 393 (Renal Cancer)): 6.48 µM; CC50 ([4]; SF-268 (CNS Cancer)): 9.48 µM; CC50 ([4]; SK-MEL-2 (Melanoma)): 12.4 µM; CC50 ([4]; SK-MEL-5 (Melanoma)): 5.61 µM; CC50 ([4]; SK-MEL-28 (Melanoma)): 5.88 µM; CC50 ([4]; SK-OV-3 (Ovarian Cancer)): 66.7 µM; CC50 ([4]; SN12C (Renal Cancer)): 6.33 µM; CC50 ([4]; SNB-19 (CNS Cancer)): 7.01 µM; CC50 ([4]; SNB-75 (CNS Cancer)): 7.76 µM; CC50 ([4]; SW-620 (Colon Cancer)): 8.55 µM; CC50 ([4]; T-47D (Breast Cancer)): 7.77 µM; CC50 ([4]; TK-10 (Renal Cancer)): 19.3 µM; CC50 ([4]; U251 (CNS Cancer)): 5.86 µM; CC50 ([4]; UACC-62 (Melanoma)): 5.98 µM; CC50 ([4]; UACC-257 (Melanoma)): 25.7 µM; CC50 ([4]; UO-31 (Renal Cancer)): 5.44 µM; GI50 [5]: 2050 nM; TGI [5]: 5.23E−6; CC50 ([5]; read-out: LC50): 19.8 µM; GI50 [6]: 1290 nM; TGI [6]: 4.33E−6; CC50 ([6]; read-out: LC50): > 100 µM

Source: patent US20250296953A1, “3,4-THIAZOLO-STEROIDS AND METHODS OF MAKING AND USING THE SAME” (Arkansas State University - Jonesboro, priority 2018, published 2025)
